One experiment addresses T1, HADH2 (HSD17β10) (Homo sapiens, UniProt Q99714).
T1 sequence (Q99714 1-261): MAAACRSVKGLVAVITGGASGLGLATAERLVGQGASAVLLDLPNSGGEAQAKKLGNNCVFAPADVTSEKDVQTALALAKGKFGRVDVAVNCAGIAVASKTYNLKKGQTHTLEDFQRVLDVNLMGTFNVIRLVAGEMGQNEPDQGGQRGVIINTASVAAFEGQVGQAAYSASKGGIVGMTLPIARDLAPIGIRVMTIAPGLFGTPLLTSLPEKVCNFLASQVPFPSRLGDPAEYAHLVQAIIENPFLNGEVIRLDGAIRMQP
In words: Selectivity screen, hydroxyacyl dehydrogenase (PubChem Assay ID 886).

The next experiment addresses T2, ALDH1A1 (Homo sapiens, UniProt P00352).
T2 sequence (P00352 1-501): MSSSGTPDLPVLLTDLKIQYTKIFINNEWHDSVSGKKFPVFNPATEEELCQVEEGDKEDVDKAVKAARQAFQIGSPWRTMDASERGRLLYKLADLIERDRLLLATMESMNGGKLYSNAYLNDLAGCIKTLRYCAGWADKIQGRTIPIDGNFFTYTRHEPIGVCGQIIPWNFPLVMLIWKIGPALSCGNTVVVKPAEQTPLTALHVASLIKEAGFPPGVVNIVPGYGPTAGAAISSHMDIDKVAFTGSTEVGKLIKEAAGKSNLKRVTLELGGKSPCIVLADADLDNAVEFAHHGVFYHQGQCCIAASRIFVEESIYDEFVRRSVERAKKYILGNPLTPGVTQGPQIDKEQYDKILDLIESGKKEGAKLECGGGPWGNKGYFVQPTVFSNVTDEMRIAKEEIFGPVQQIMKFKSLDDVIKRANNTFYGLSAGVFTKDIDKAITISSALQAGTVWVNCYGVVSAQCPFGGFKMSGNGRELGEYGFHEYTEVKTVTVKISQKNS
Put plainly: Selectivity screen, aldehyde dehydrogenase 1 (PubChem Assay ID 1030). The class given is biochemical.

For experiment [1], the target named is T3, human 15-PGDH (Homo sapiens, UniProt P15428).
T3 construct: comprising residues 3–256 of the human HPGD gene (GenBank identifier: 1203982); His6 (GHHHHHH, behind the TEV site) (C, cleaved yes); made in house; host or cells: E. coli BL21(DE3)-R3
T3 sequence (P15428 3-256): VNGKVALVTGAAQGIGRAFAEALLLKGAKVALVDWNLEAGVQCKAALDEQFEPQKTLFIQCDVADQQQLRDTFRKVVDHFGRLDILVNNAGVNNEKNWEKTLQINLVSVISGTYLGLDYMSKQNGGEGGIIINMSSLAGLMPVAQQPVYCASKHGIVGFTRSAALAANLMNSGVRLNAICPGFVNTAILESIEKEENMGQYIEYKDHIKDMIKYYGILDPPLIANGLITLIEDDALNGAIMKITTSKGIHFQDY
Put plainly: qHTS and 24-point re-test: fluorescence assay of NAD+ reduction to NADH on PGE2 oxidation (PubChem AID 894). Conditions: read-out: qHTS IC50. The class given is biochemical. The essentials: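 NADH fluorescence (ex 340/em 450 nm) followed kinetically over a 2-min initial rate. Data normalized to no-enzyme and no-compound controls; four-parameter Hill fit.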
(In qHTS, concentration-response curves come from the screen itself.)

For experiment [2], the target named is T3, human 15-PGDH. In words: Compound titrations of re-synthesized inhibitors in the kinetic assay. The class given is biochemical. Conditions: 10 nM 15-PGDH, 30 µM PGE2, 200 µM NAD+, 25°C, lower percent substrate conversion; read-out: IC50, re-synthesized compounds. As for the experimental part:
Kinetic studies were performed in 100 mM Tris buffer pH 8.0, containing 0.01% Tween-20 and 10 nM 15-PGDH enzyme. […] All inhibitor compounds were dissolved in 10% (v/v) DMSO at varying concentrations from which they were applied at 1∶5 ratio (resulting in a final concentration of 2% (v/v) DMSO in all assays). For each experiment an aliquot of purified enzyme was thawed freshly and pre-diluted to 10 µM in buffer I (5 mM Tris/HCl, pH 8.0, 150 mM NaCl, 0.01% Tween-20). All experiments were performed in white 384-well PCR microplates (Bio-Rad Laboratories, Inc.) in final assay volumes of 20 µL. Twelve-point compound titrations were set up from serially diluted stock solutions in 10% (v/v) DMSO. […] The initial rates recorded in compound titrations were plotted against -log[compound], and non-linear regression (Levenberg-Marquardt) fitting of the dose-response curve to the Hill equation [47] was performed to derive the IC50, using PRISM 5.0 (GraphPad Software, Inc.). For substrate/cofactor titrations, curves with initial rates plotted against the concentration of substrate or cofactor were fitted to the Michaelis-Menten equation, to derive maximal activities, V max, and Michaelis constants, K m. Fitting qualities were judged from the goodness of fit (R^2>0.98).

Where [3] appears, read: top concentration 57.5 µM, PubChem Assay ID 1030, read-out: IC50/nM ALDH1A1.

Where two headings read alike, the source gives them in different places. Where only a bound is given, the exact number is not on record here.

Procedure for ALDH1A1: (§1) The list also includes two SDR enzymes, hydroxyacyl dehydrogenase (HADH2, also known as type-10 hydroxysteroid dehydrogenase, HSD17β10; PubChem Assay ID 886) and type-4 hydroxysteroid dehydrogenase (HSD17β4; PubChem Assay ID 893), and a medium-chain dehydrogenase/reductase (MDR), aldehyde dehydrogenase 1 (ALDH1A1; PubChem Assay ID 1030), each of which was tested using a similar experimental protocol to that used for 15-PGDH.
Procedure for HADH2 (HSD17β10): as §1

Consider `Cc1cccc(-n2cnc3cc(C(=O)N4CCCCC4)ccc32)c1` [Compound 13, [1-(3-methylphenyl)-1H-benzimidazol-5-yl)(piperidin-1-yl)methanone], for which the IC50 at HADH2 (HSD17β10) was above 57500 nM; on ALDH1A1 (ALDH1A1, shallow curve, read-out: approximate IC50), around 36000 nM; on ALDH1A1 (setting [3]), 36000 nM; at human 15-PGDH [1], 56 nM; at human 15-PGDH [2], 7.9 ± 0.8 nM. For the same molecule, the Emax on ALDH1A1 (ALDH1A1, footnote of Table 3, read-out: Maximal response, inhibition) is 70%.

On to `Cc1cc(-c2nnc3n2CCCCC3)c(C)n1-c1ccccc1` [Compound 72], for which the IC50 on HADH2 (HSD17β10) was above 57500 nM; at ALDH1A1 (setting [3]) it was above 57500 nM; at human 15-PGDH [1], 89 nM; at human 15-PGDH [2], 15 ± 1.2 nM. Besides, at ALDH1A1 (in words), the “response against ALDH1A1” value was “flat response”.
